From patent US20140349332A1, “METHOD AND DEVICE FOR EXAMINING MYOCARDIAL TOXICITY AND EVALUATING CARDIOMYOCYTE” (priority 2011, published 2014) come the findings set out here.

For this data set, the system named is cardiomyocyte network. Kind of data set: Simultaneous measurement of extracellular potential (FP) and contractile force (optical imaging of probe microparticles) in cardiomyocyte network. It counts as cell-based. The source says:
FIG. 43 is a schematic diagram showing an example of a system configuration of the present invention to simultaneously measure the mechanical properties and electrical properties of cardiomyocytes. The present system includes (1) a cellular network chip that can be used for culturing a cell population, includes a plurality of micro-electrodes disposed on a substrate and can be used for acquiring cellular potential data of a small area of the population; (2) a chip mounter for mounting the chip and joining electrically with cell-stimulating and/or cellular potential measuring system; (3) an environmental control vessel which can be used to control the environment such as temperature, humidity, oxygen concentration and carbon dioxide concentration of the cell population being cultured; (4) a micro multi-electrode potential measurement system that can give stimulation to a specific cell of a cardiomyocyte population, and allows simultaneous continuous measurements of cellular potentials of various small areas in the cell population; (5) one or more position-coordinate probe microparticles configured to measure changes in shape of myocardial cells and allow easy identification of cardiomyocytes using a plastic, polymer, glass or metal microparticles such as polystyrene microparticles, glass microparticles or gold microparticles of sizes from at minimum about 0.1, 0.2 μm, 0.3 μm, 0.4 μm, 0.5 μm, 0.6 μm, 0.7 μm, or preferably about 0.8 μm, more preferably about 0.9 μm, or most preferably about 1 μm, to at most about 500 μm, 400 μm, 300 μm, preferably about 200 μm, more preferably about 100 μm or most preferably about 50 μm, wherein the particles are disposed in the cell population by mixing them on the surface of the cardiomyocyte population in the cell network chip or in the cell population and culturing them; (6) an optical image capturing system for optically measuring the microparticles, wherein the system includes a light source, an optical microscope and an image-capturing camera to capture the images of the microparticles; and (7) a computer system for image analysis, cellular potential analysis, stimulus control and/or integrated data acquisition, wherein the system is capable of measurements of cellular potential and analysis of waveforms of the potential, measurements of cell displacements by image analysis and feedback stimulation based on the analysis results. In the measurements using the device system, as for the stimulus to cause depolarization of the myocardial cells, the stimulus can be provided by selecting mainly from three means, i.e., (A) measurements using conduction of autonomous pulsation of the cardiomyocyte population, (B) measurements of conduction by providing a forced electrical stimulation from outside to a specific cell in the cardiomyocyte population and (C) measurements of conduction by providing a feed-back stimulus at a specific timing to meet the relationship of the delay time and the value of the cellular potential based on the cell voltage measured data to the specific cells in the cardiomyocyte population.
FIG. 44 is an example of a data acquisition monitor screen showing an example of data obtained from an example of a system configuration of the present invention to simultaneously measure the mechanical properties and the electrical properties of cardiomyocytes. In a setting of this example, a large number of polystyrene microparticles are placed on the surface of the cardiomyocyte population, a probe-particle displacement-observation window for five of the polystyrene microparticles selected as probes is set, and the center of gravity of the window moves with the movement of the microparticles in the window, thereby displacement of the particular probe microparticles can be measured continuously as a change in vector time in the directions of the X-axis and Y-axis. […]

[1] abbreviates: drug concentration of 100 nM, FIG. 52B.

Take `COc1ccc(CCN(C)CCCC(C#N)(c2ccc(OC)c(OC)c2)C(C)C)cc1OC` (stereo not drawn) [verapamil]: where the note is “1000 nM, FIG. 52A”, the electrophysiological excitation result is given as “does not occur” and the mechanical contraction result is listed as “mechanical contraction does not occur”. For the setting “administration of 10 nM, FIG. 54B”, the “angle fluctuation against decrease in contractile force” value is recorded as “barely increases”. Besides, under “administration of 100 nM, FIG. 54B”, the “fluctuation of contractile direction in the angular direction” value is listed as “rapid fluctuation”. In addition, under setting [1], the contractile force entry is “disappear rapidly” and the “electrical firing of excitatory conduction of cells” value is given as “maintained”.
